This note sets out measurements from US6340708B1, “Pharmaceutical composition comprising at least one aminopeptidase A inhibitor” (Institut National de la Sante et de la Recherche Medicale …, priority 1998, dated 2002).

“Also recorded” adds a separate entry of the source.

The subject of assay [1] is arterial pressure of WKY normotensive and SHR hypertensive rats. As to the kind of experiment: Mean arterial pressure in anaesthetized WKY and SHR rats after i.c.v. injection. Format: in vivo, rat. The settings on record: for maximum hypotensive effect (change in arterial pressure): 100 μg i.c.v.; for antagonist effect on PC18-induced increase in arterial pressure: Losartan 10 μg pretreatment, PC18 60 μg. From the text:
The rats used are male Sprague-Dawley rats weighing 200 to 250 grams; some of them are 11-week-old rats (SHR). Wistar Kyoto normotensive rats are also used as controls. The animals are kept for one week with alternating 12-hour periods of light and half-light, and have water and food available ad libitum. For each experiment, the SHR and WKY rats are weighed, and their arterial pressure and cardiac rhythm are continuously recorded via an invasive route after inserting a catheter (PE 50) into the femoral artery. The catheter is linked to a pressure sensor (COBE) and connected to a signal processor which is linked to an amplifier. The computer system comprises a MacLab interface system and application software (Chart and Scope) which allows data acquisition and calculation through a Macintosh computer.
These experiments are carried out in Wistar Kyoto (WKY) normotensive rats or spontaneously hypertensive rats (SHR 12 weeks old).
The animals are anaesthetized with Inactin (5-ethyl-2-(1′-methylpropyl)-2-thiobarbita), this being an anaesthetic which is used regularly in renal or cardiovascular physiology experiments. Its properties are to cause a very slight drop in arterial pressure, which is visible only in SHR rats, and especially to allow a stable basal arterial pressure to be maintained throughout the experiment.
The mean arterial pressure (systolic+diastolic) is measured continuously, via an invasive route, after catheterizing the femoral artery. The peptides or the inhibitors, are injected via the intracerebroventricular (i.c.v.) route with the aid of a cannula positioned in the lateral ventricle under stereotaxy (Stereotaxic Atlas; G. Paxinos and C. Watson, Academic Press, 1986).
The experiments are carried out on groups of 4 to 20 individually analysed animals. The results on batches of control animals and treated animals were compared with the aid of an analysis of variance (ANOVA), followed by an unpaired Student's test.
An injection of angiotensin II is carried out combined, where appropriate, with a consecutive injection of EC33.
In accordance with the protocol described in Example 3, AngIII (10 ng) in the presence of 60 μg of PC18 is injected into SHR rats. As a control test, an injection of PC18 alone is carried out.

A further assay relates to aminopeptidase A (APA). As to the kind of experiment: Measurement of APA activity in vitro (GluβNa hydrolysis, purified APA). The settings on record: APN versus APA.
Assay [2] relates to formation of angiotensin III from [3H]AngII in hypothalamus. As to the kind of experiment: In vivo metabolism of tritiated AngII/AngIII in murine hypothalamus after i.c.v. injection. More on the design: species or system mouse. The following applies: mice. The method, then: Male Swiss mice (available from the IFFA Credo Institute) weighing 18 to 20 grams are maintained under artificial light (12 hours in bright phase - 12 hours in half-light) and have food and water available ad libitum. The experiments are carried out between 9 o'clock and 11 o'clock in the morning. The drugs are administered into the lateral ventricle by the intracerebroventricular route (i.c.v) at an amount of 5 μl per mouse according to the method of Haley and McCormick (Br. J. Pharmacol. 12, 12-15).
For each experiment, six to eight mice are used for each of the conditions. A mixture of 2×10^6 cpm of [^3H]Ang II and 30 μg of unlabelled Ang II is administered in a 5 μl volume, alone or together with EC33 (30 μg). The inhibitors are dissolved in an isotonic saline solution adjusted to a pH of 7.4 with 0.01 M NaOH solution. At various times after the injection, the mice are decapitated, their brains are removed and their hypothalami are dissected on ice and homogenized by sonication (ultrasons, Anemasse, France) in 10 volumes of a 0.1 M HCl solution cooled in ice. […]
The respective amounts of labelled angiotensins II and III present in the hypothalamus are determined according to the protocol of Ledwith et al. (Anal. Biochem. 213, 349-355). […] The F1 and F2 fractions are then analysed by HPLC to determine their respective content of tritiated angiotensin II and tritiated angiotensin III.
With the aim of an HPLC analysis, the F1 and F2 fractions are initially concentrated by extraction on a C18 Sep-pak® Cartridges device (Waters). […] After elution on Sep-pak®, the respective F1 and F2 fractions are freeze-dried, dissolved in 0.2 ml of a 0.01 M acetic acid solution, with 20 ng of angiotensin II and of angiotensin III as internal standard, and analysed by HPLC.
The HPLC analysis is carried out using an H Hypersil ODS®-3 μm reverse phase column (Shandon, Pittsburgh) heated to 45° C., then with an isocratic elution at a flow rate of 0.6 ml per minute. […] Their radioactivity content is estimated with a beta counter. […]

The test system of assay [3] is arterial pressure of conscious SHR rats. The assay is described as follows: Arterial pressure in conscious SHR rats after i.c.v. or i.v. injection. Format: in vivo, rat. The method, then:
These experiments are carried out in a 12-week-old SHR rats (300-350 g). During the operation, the animals are anaesthetized for a limited time (3 hours) with sodium pentobarbital (50 mg/kg intraperitoneal, Laboratoire Sentravet, Plancoët, France) The experiments are carried out a minimum of 24 hours after the operation.
The injections are carried out with the aid of a cannula positioned in the lateral ventricle under stereotaxy, and the arterial pressure is measured continuously, via an invasive route, after catheterizing the femoral artery. The catheter is exteriorized at the level of the animal's neck, and is linked to a fixing system which allows the rat to move around freely in its cage.
A first catheter is positioned in the femoral vein in order to carry out the injections, a second catheter is introduced into the femoral artery in order to be able to measure arterial pressure continuously. Both catheters are then exteriorized as indicated above.

Source text for aminopeptidase A (APA): In vitro, in the presence of calcium ions, APA hydrolyses α-L-glutamyl-β-naphthylamide (gluβNa) to glutamate and β-naphthylamine (βNa). A diazotation reaction in acid medium makes it possible to reveal the β-naphthylamine by formation of a violet-coloured complex: spectrophotometric measurement then makes it possible to know the amount of complex formed and, by reference to a standard curve produced with increasing concentrations of β-naphthylamine, to deduce therefrom the enzymatic activity of the sample.
The GluβNa substrate and the β-naphthylamine (Bachem) are dissolved in DMSO (dimethyl sulphoxide) and 0.1 N HCl respectively, and conserved at −20° C. at a concentration of 10^−2 M. The diazotation reaction is carried out in the presence of sodium nitrite (87 mM), ammonium sulphamate (130 mM) and N-(1-naphthyl)-ethylenediamine dihydrochloride (23 mM).
The reaction takes place at pH 7.4 in 50 mM tris-HCl buffer, in the presence of calcium (4 mM CaCl2); the sample to be assayed is incubated at 37° C. in the presence of substrate (200 μM GluβNa) and in the presence or absence of various concentrations of the inhibitor to be tested, in a final volume of 100 μl. The reaction is stopped by adding 10 μl of 3N HCl. A standard curve of β-naphthylamine in acid medium (add 10 μl of 0.1 N HCl) is produced in parallel.
The following are added to each well: […]

On to “angiotensin II (DRVYIHPF; Angiotensin-2; UniProt P01019 25-32, looked up) [ANGII, angiotensin II peptide available from Amersham or Sigma]”, for which, in assay [1] (AngII 10 ng i.c.v., WKY and SHR rats), the “maximum magnitude of increase in arterial pressure” value is “approximately 10 mmHg”.

In the case of `CSCC[C@H](N)CS` [PC18, methioninethiol], the “times less active on APA than on APN” value in the assay with aminopeptidase A (APA) is listed as 1000. Moreover, in assay [1] (AngIII 10 ng with PC18 60 μg i.c.v., SHR rats), the “effect on the pressure effect of AngIII” value is “potentiation”. For the same compound, in assay [1] (PC18 60 μg i.c.v., normotensive rats), the “increase in arterial pressure” value was “+10 mmHg”. The “duration of pressure effect” value in assay [1] (PC18 alone 60 μg i.c.v., SHR rats) is “approximately 12 minutes”.

For the compound `N[C@H](CS)CCS(=O)(=O)[O-].[Na+]` [EC33, sodium (S)-3-amino-4-mercaptobutylsulphonate], the “effect on the AngII-induced increase in arterial pressure” value in assay [1] (AngII 10 ng with EC33 100 μg i.c.v.) is recorded as “completely eliminated”. In addition, the “modification of the effect on pressure of AngIII” value in assay [1] (AngIII 30 ng with EC33 i.c.v.) is given as “ineffectiveness”. Besides, the “maximum hypotensive effect (change in arterial pressure)” value in assay [1] (hypertensive (SHR) anaesthetized rats) was −28 mmHg. Besides, the “maximum hypotensive effect (change in arterial pressure)” value in assay [1] (normotensive (WKY) anaesthetized rats) is given as −22 mmHg. Besides, the “formation of tritiated AngIII in hypothalamus” value in assay [2] (EC33 30 μg i.c.v.) is given as “immediately blocked; also recorded: totally blocks”. Also, the “half-life of [3H]AngII in hypothalamus” value in assay [2] (EC33 30 μg i.c.v. with [3H]AngII and 30 μg AngII) is 5.38 ± 0.21 min. Moreover, the “[3H]AngII content in hypothalamus, times the content of the control test” value in assay [2] (EC33 30 μg i.c.v., between 0.5 and 7 minutes) was “approximately 11”. Besides, in assay [3] (100 μg i.c.v.), the “decrease in arterial pressure” value is listed as −26 mmHg and the “duration of hypotensive effect” value was determined as 40 min. Further, in assay [3] (45 mg/kg i.v.), the hypotensive effect result is “does not induce a significant hypotensive effect”.

Regarding `CCCCc1nc(Cl)c(CO)n1Cc1ccc(-c2ccccc2-c2nn[nH]n2)cc1` [Losartan], the “antagonist effect on PC18-induced increase in arterial pressure” value in assay [1] (hypertensive rats) is given as “about 52%”; in assay [1] (normotensive rats), “about 85%”.
